Data taken from PubChem BioAssay AID720587 (Broad Institute, 2013).
Several values for one entry are separate records, joined by “and”; a condition that tells them apart may be missing. Equal values may be shown once.

Each molecule was assayed on A673 Ewing sarcoma viability, CellTiter-Glo ATP luminescence, 72 h (assay: A673 Ewing sarcoma viability loss – cell-based, CellTiter-Glo luminescence, cherry-pick retest, confirmation (AID 720587)).

C[C@H](CO)N1C[C@H](C)[C@H](CN(C)CC2CCCCC2)Oc2ccc(NC(=O)CCCCCC(=O)Nc3ccccc3N)cc2CC1=O and C[C@H](CO)N1C[C@H](C)[C@H](CN(C)Cc2ccc(C(=O)Nc3ccccc3N)cc2)Oc2ccc(NC(=O)C3CC3)cc2CC1=O are within 1.5-fold of each other in AC35: 10.5 µM for the first, 7.86 µM for the second.

Going from CC1(C)Oc2cc3oc(-c4cc(O)cc(O)c4)cc3cc2CC1O (configuration not stated) to COC(=O)C[C@@H]1CC[C@@H]2[C@@H](COc3ccc(NC(=O)Nc4ccc(C#N)cc4)cc3C(=O)N2C)O1, the AC35 falls from 21.7 µM to 9.7 µM (2.2-fold).

O=C(CCCN1C(=O)/C(=C/c2ccccc2Cl)SC1=S)NNC(=O)c1ccc(Cl)cc1 and COc1ccc(/C=C2\SC(=S)N(CCCC(=O)NNC(=O)c3ccccc3O)C2=O)cc1 are within 1.5-fold of each other in AC35: 23.9 µM for the first, 16.8 µM for the second.

First: COc1ccc(/C=C/C(=O)c2ccc(C(=O)/C=C/c3ccc(OC)c(OC)c3)cc2)cc1OC
Second: COc1cc(/C=C/C(=O)CC(=O)/C=C/c2ccc(O)c(OC)c2)ccc1O
The AC35 of the first is 2-fold higher: 5.02 µM for the first, 2.54 µM for the second.

Going from N#CC1=C(N)Oc2cc(N)ccc2C1c1cccc(Br)c1 (configuration not stated) to COc1cc2oc3cc(C#Cc4ccc(N)cc4)ccc3c(=O)c2cc1OC, the AC35 rises from 0.505 µM to 17.4 µM (34-fold).

First: O=C(O)c1ccccc1C(=O)Nc1ccc(Oc2cccc3ccccc23)cc1
Second: C[C@@H]1CN([C@H](C)CO)C(=O)c2cc(NC(=O)c3ccccc3)ccc2O[C@@H](C)CCCCO[C@H]1CN(C)C(=O)Nc1cccc2ccccc12
The AC35 of the first is 8.7-fold higher: 18.9 µM for the first, 2.17 µM for the second.

COC1C(O)C(C)OC(OC2CCC3(C)C(CCC4C3C(O)CC3(C)C(C5=CC(=O)OC5)CCC43O)C2)C1O (configuration not stated) and C[C@H]1O[C@@H](O[C@H]2[C@@H](O)C[C@H](O[C@H]3[C@@H](O)C[C@H](O[C@H]4CC[C@@]5(C)[C@H](CC[C@@H]6[C@@H]5C[C@@H](O)[C@]5(C)[C@@H](C7=CC(=O)OC7)CC[C@]65O)C4)O[C@@H]3C)O[C@@H]2C)C[C@H](O)[C@@H]1O are within 1.5-fold of each other in AC35: 0.228 µM for the first, 0.173 µM for the second.

Compared with O=C(/C=C/c1cc(Br)ccc1O)c1ccco1, O=C(Sc1cccc2cccnc12)c1ccccc1Br is 11-fold lower in AC35: 12.3 µM for the first, 1.17 µM for the second.

Compared with CCc1nc(N)nc(N)c1-c1ccc(Cl)c(N=[N+]=[N-])c1, Cn1ccc2cc(-c3ccc4ncnc(NCc5cccs5)c4c3)ccc21 is 1.6-fold lower in AC35: 7.14 µM for the first, 4.58 µM for the second.

COC(=O)C[C@@H]1CC[C@@H]2[C@@H](COc3ccc(NC(=O)Nc4ccccc4C)cc3C(=O)N2C)O1 and COC(=O)C[C@H]1C=C[C@@H](NC(=O)Nc2ccc(C(F)(F)F)cc2)[C@H](CO)O1 are within 1.5-fold of each other in AC35: 19.7 µM for the first, 21.6 µM for the second.

First: C=C1C(=O)O[C@@H]2[C@H]1[C@@H](OC(=O)/C(C)=C/C)C/C(C)=C\C(=O)/C=C(\C)[C@@H]2O
Second: Cc1noc(C)c1C(=O)Nc1sccc1C(N)=O
The AC35 of the first is 4.4-fold lower: 3.23 µM for the first, 14.3 µM for the second.

COc1ccc(S(=O)(=O)Nc2ccc3c(c2)C(=O)N([C@H](C)CO)C[C@@H](C)[C@@H](CN(C)CC2CCCCC2)OCCCC[C@H](C)O3)cc1 and C[C@@H]1CCCCO[C@H](CN(C)Cc2ccc(C(=O)Nc3ccccc3N)cc2)[C@@H](C)CN([C@@H](C)CO)C(=O)c2cc(NS(=O)(=O)c3ccc(Cl)cc3)ccc2O1 are within 1.5-fold of each other in AC35: 12.3 µM for the first, 8.42 µM for the second.

Going from O=C(NCc1ccc(F)cc1)N1[C@H]2CC[C@@H]1C=C(c1ccc(F)cc1OCc1ccccc1)C2 to COc1ccccc1NC(=O)N1CCCCN2[C@H](CO)[C@H](c3ccc(-c4cccc(C)c4)cc3)[C@H]2C1, the AC35 rises from 1.89 µM to 9.29 µM (4.9-fold).

OC[C@H]1[C@@H](c2ccc(C#CC3CCCC3)cc2)[C@@H]2CN(CCC(F)(F)F)CCCCN12 and C[C@@H]1CCCCO[C@H](CN(C)Cc2ccc(C(F)(F)F)cc2)[C@H](C)CN([C@H](C)CO)C(=O)c2cc(NC(=O)CCCN(C)C)ccc2O1 are within 1.5-fold of each other in AC35: 7.53 µM for the first, 7.73 µM for the second.

CCc1ccc2oc(C(=O)N3CCN(c4ccccc4OC)CC3)cc(=O)c2c1 and C[C@@H]1CN([C@@H](C)CO)C(=O)Cc2cc(N(C)C)ccc2O[C@@H]1CN(C)Cc1ccccc1 are within 1.5-fold of each other in AC35: 14.3 µM for the first, 14.4 µM for the second.

Compared with COC(=O)C(CC#Cc1ccc2c(c1)[C@]1(C(=O)N2)[C@H](c2ccc(OCCO)cc2)N2[C@H](c3ccccc3)[C@H](c3ccccc3)OC(=O)[C@H]2[C@@H]1C(=O)N1CCN(c2ncccn2)CC1)C(=O)OC, Cc1ccc(C(C(=O)NCc2ccco2)N(C(=O)CNC(=O)c2cccs2)c2c(C)cc(C)cc2C)cc1 (configuration not stated) is 1.9-fold higher in AC35: 7.81 µM for the first, 14.6 µM for the second.

Going from O=C1NC(=O)N(c2ccccc2)C(=O)/C1=C\C=C\c1ccccc1 to CCN(CC)c1ccc(C2NC(=O)c3ccccc3N2)cc1 (configuration not stated), the AC35 rises from 4.03 µM to 21.6 µM (5.4-fold).

Compared with CC(C)c1ccc(OCc2cccc(C(=O)N/N=C/c3cccnc3)c2)cc1, CCOc1ccc(N=Nc2ccc(O)c3ncccc23)cc1 is 39-fold lower in AC35: 19.4 µM for the first, 0.5 µM for the second.

Cc1[nH][nH]c(=O)c1C(c1c(C)[nH][nH]c1=O)c1cn(Cc2ccc(Cl)c(Cl)c2)c2ccccc12 and CN(C)c1ccc(-c2ccnc3c2CC(C)(C(=O)NCc2ccco2)O3)cc1 (configuration not stated) are within 1.5-fold of each other in AC35: 9.8 µM for the first, 7.77 µM for the second.

First: C[C@@H]1O[C@@H](O[C@H]2C[C@@H](O)[C@]3(CO)[C@H]4[C@H](O)C[C@]5(C)[C@@H](C6COC(=O)C6)CC[C@]5(O)[C@@H]4CC[C@]3(O)C2)[C@H](O)[C@H](O)[C@H]1O (some centres not stated)
Second: OCC1OC(n2ccc3c2ncn2ncnc32)C(O)C1O (configuration not stated)
The AC35 of the first is 3-fold higher: 2.06 µM for the first, 0.693 µM for the second.

Molecule CCCCCCCCNC(C)C(O)c1ccc(SC(C)C)cc1 (configuration not stated) has an AC35 of 5.92 µM.

CN(Cc1cnc2nc(N)nc(N)c2n1)c1ccc(C(=O)N[C@@H](CCC(=O)O)C(=O)O)cc1 was tested, and the AC35 was 0.0191 µM and 0.018 µM.
